Measurements reported in US20250368633A1, “AZEPINE FUSED RING COMPOUND AS RIPK1 INHIBITOR AND USE THEREOF” (ARTIVILA BIOPHARMA, priority 2022, published 2025).

What was measured:
[1] = target: T1, RIPK1 kinase (Homo sapiens, UniProt Q13546); assay: In vitro RIPK1 kinase activity assay (ADP-Glo), inhibition by compounds at 1 μM; format: biochemical; settings: compound 1 μM; ATP 10 μM; MBP substrate 100 μg/mL; read-out: RIPK1 kinase activity inhibition rate range
T1 construct: purchased Promega VA7593
T1 sequence (Q13546 1-671): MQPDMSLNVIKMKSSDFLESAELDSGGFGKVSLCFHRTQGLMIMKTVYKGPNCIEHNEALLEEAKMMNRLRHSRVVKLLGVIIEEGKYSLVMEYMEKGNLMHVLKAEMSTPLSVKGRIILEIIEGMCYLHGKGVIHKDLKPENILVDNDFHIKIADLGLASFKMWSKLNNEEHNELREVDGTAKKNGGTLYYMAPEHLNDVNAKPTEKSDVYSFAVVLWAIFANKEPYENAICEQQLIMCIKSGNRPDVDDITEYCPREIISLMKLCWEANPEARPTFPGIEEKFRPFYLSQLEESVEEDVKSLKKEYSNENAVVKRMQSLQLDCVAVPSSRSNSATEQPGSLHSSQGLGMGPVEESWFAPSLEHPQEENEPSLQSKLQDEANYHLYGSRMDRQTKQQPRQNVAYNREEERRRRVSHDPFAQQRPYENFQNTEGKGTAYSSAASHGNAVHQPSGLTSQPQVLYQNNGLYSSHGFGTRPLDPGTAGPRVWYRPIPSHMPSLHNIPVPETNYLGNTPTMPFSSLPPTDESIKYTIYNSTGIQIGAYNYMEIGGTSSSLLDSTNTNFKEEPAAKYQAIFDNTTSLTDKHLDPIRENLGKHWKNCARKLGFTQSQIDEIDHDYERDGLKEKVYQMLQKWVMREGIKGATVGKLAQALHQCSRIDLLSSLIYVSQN
Outline: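 Compound and RIPK1 were preincubated 15 min at room temperature, then reacted 1 h with 10 μM ATP and 100 μg/mL MBP substrate in kinase buffer D. ADP formed was measured by ADP-Glo luminescence and converted to percent inhibition of kinase activity.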

[2] = system: U937 cells; assay: Inhibition rate of compound (1 μM) on necroptosis of U937 cells (TSZ-induced, CellTiter-Glo); format: cell-based; settings: TSZ (hTNF-α, SM-164, Z-VAD-FMK) 20 hours
Outline: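 U937 cells were pretreated 15 min with compound, then necroptosis was triggered with TSZ (Z-VAD-FMK, hTNF-α, SM-164) for 20 h at 37° C. Viability was read as ATP by CellTiter-Glo luminescence, and inhibition (%) was taken relative to no-TSZ and TSZ-only wells.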

inhibition at 1 µM [1] [%] | SMILES | Inhibition rate range of compounds (1 μM) on U937 cell necroptosis [2]
≥ 75 | CN1C(=O)[C@@H](NC(=O)C(=O)NCCc2ccccc2)COc2ccc(C#CC3(O)COC3)cc21 [Example 43, (S)—N^1-(7-((3-hydroxyoxetan-3-yl)ethynyl)-5-methyl-4-oxo-2,3,4,5-tetrahydrobenzo[b][1,4]oxazepin-3-yl)-N^2-phenethyloxalamide] | A (A: ≥90%)
≥ 75 | CN1C(=O)[C@@H](NC(=O)C(=O)NCCc2ccccc2)COc2ccc(C#CCCN)cc21 [Example 50, (S)—N^1-(7-(4-aminobut-1-yn-1-yl)-5-methyl-4-oxo-2,3,4,5-tetrahydrobenzo[b][1,4]oxazepin-3-yl)-N^2-phenethyloxalamide] | A (A: ≥90%)
50 to 74 | CN1C(=O)[C@@H](NC(=O)C(=O)NCCc2ccccc2)COc2ccc(C#CC3COC3)cc21 [Example 76, (S)—N^1-(5-methyl-7-(oxetan-3-ylethynyl)-4-oxo-2,3,4,5-tetrahydrobenzo[b][1,4]oxazepin-3-yl)-N^2-phenethyloxalamide] | A (A: ≥90%)
50 to 74 | CN1C(=O)[C@H](NC(=O)C(=O)NCCc2ccccc2)COc2ccc(C#CC3(O)COC3)cc21 [Example 77, (R)—N^1-(7-((3-hydroxyoxetan-3-yl)ethynyl)-5-methyl-4-oxo-2,3,4,5-tetrahydrobenzo[b][1,4]oxazepin-3-yl)-N^2-phenethyloxalamide] | A (A: ≥90%)
50 to 74 | COC1(C#Cc2ccc3c(c2)N(C)C(=O)[C@@H](NC(=O)C(=O)NCCc2ccccc2)CO3)COC1 [Example 78, (S)—N^1-(7-((3-methoxyoxetan-3-yl)ethynyl)-5-methyl-4-oxo-2,3,4,5-tetrahydrobenzo[b][1,4]oxazepin-3-yl)-N^2-phenethyloxalamide] | A (A: ≥90%)
50 to 74 | CN1C(=O)[C@@H](NC(=O)C(=O)NCCc2ccccc2)COc2ccc(C#CCC3(O)COC3)cc21 [Example 79, (S)—N^1-(7-(3-(3-hydroxyoxetan-3-yl)prop-1-yn-1-yl)-5-methyl-4-oxo-2,3,4,5-tetrahydrobenzo[b][1,4]oxazepin-3-yl)-N^2-phenethyloxalamide] | A (A: ≥90%)
≥ 75 | CN1C(=O)[C@@H](NC(=O)C(=O)NCCc2ccccc2)COc2ccc(C#CC3(O)CCOC3)cc21 (stereo partly drawn) [Example 80, N^1-((3S)-7-((3-hydroxytetrahydrofuran-3-yl)ethynyl)-5-methyl-4-oxo-2,3,4,5-tetrahydrobenzo[b][1,4]oxazepin-3-yl)-N^2-phenethyloxalamide] | A (A: ≥90%)

More lines, now with the values behind:

SMILES | inhibition at 1 µM [1] [%] | Inhibition rate range of compounds (1 μM) on U937 cell necroptosis [2]
CN1C(=O)[C@@H](NC(=O)C(=O)NCc2cccc(F)c2)COc2ccc(C#CCCO)cc21 [Example 39, (S)—N^1-(3-fluorobenzyl)-N^2-(7-(4-hydroxybut-1-yn-1-yl)-5-methyl-4-oxo-2,3,4,5-tetrahydrobenzo[b][1,4]oxazepin-3-yl)oxalamide] | ≥ 75 | A (A: ≥90%)
CN1C(=O)[C@@H](NC(=O)C(=O)NCc2ccc(F)cc2)COc2ccc(C#CCCO)cc21 [Example 40, (S)—N^1-(4-fluorobenzyl)-N^2-(7-(4-hydroxybut-1-yn-1-yl)-5-methyl-4-oxo-2,3,4,5-tetrahydrobenzo[b][1,4]oxazepin-3-yl)oxalamide] | ≥ 75 | A (A: ≥90%)
CN1C(=O)[C@@H](NC(=O)C(=O)NCCc2cccc(F)c2)COc2ccc(C#CC(C)(C)O)cc21 [Example 42, (S)—N^1-(3-fluorophenethyl)-N^2-(7-(3-hydroxy-3-methylbut-1-yn-1-yl)-5-methyl-4-oxo-2,3,4,5-tetrahydrobenzo[b][1,4]oxazepin-3-yl)oxalamide] | ≥ 75 | A (A: ≥90%)
CN1C(=O)[C@@H](NC(=O)C(=O)NCCc2ccccc2)COc2ccc(C#CC3(O)CCCCC3)cc21 [Example 44, (S)—N^1-(7-((1-hydroxycyclohexyl)ethynyl)-5-methyl-4-oxo-2,3,4,5-tetrahydrobenzo[b][1,4]oxazepin-3-yl)-N^2-phenethyloxalamide] | 50 to 74 | A (A: ≥90%)
C/C(C#Cc1ccc2c(c1)N(C)C(=O)[C@@H](NC(=O)C(=O)NCCc1ccccc1)CO2)=C/CO [Example 45, (S,Z)-N^1-(7-(5-hydroxy-3-methylpent-3-en-1-yn-1-yl)-5-methyl-4-oxo-2,3,4,5-tetrahydrobenzo[b][1,4]oxazepin-3-yl)-N^2-phenethyloxalamide] | ≥ 75 | A (A: ≥90%)
CN1C(=O)[C@@H](NC(=O)C(=O)NCCc2ccccc2)COc2ccc(C#CCN3CCC(O)C3)cc21 (stereo partly drawn) [Example 46, N^1-((3S)-7-(3-(3-hydroxypyrrolidin-1-yl)prop-1-yn-1-yl)-5-methyl-4-oxo-2,3,4,5-tetrahydrobenzo[b][1,4]oxazepin-3-yl)-N^2-phenethyloxalamide] | ≥ 75 | A (A: ≥90%)
CN1C(=O)[C@@H](NC(=O)C(=O)NCCc2ccccc2)COc2ccc(C#CCN3CCC(=O)CC3)cc21 [Example 47, (S)—N^1-(5-methyl-4-oxo-7-(3-(4-oxopiperidin-1-yl)prop-1-yn-1-yl)-2,3,4,5-tetrahydrobenzo[b][1,4]oxazepin-3-yl)-N^2-phenethyloxalamide] | ≥ 75 | A (A: ≥90%)
CN1C(=O)[C@@H](NC(=O)C(=O)NCCc2ccccc2)COc2ccc(C#CCN3CCOCC3)cc21 [Example 48, (S)—N^1-(5-methyl-7-(3-morpholinoprop-1-yn-1-yl)-4-oxo-2,3,4,5-tetrahydrobenzo[b][1,4]oxazepin-3-yl)-N^2-phenethyloxalamide] | 50 to 74 | A (A: ≥90%)
CN1C(=O)[C@@H](NC(=O)C(=O)NCCc2ccccc2)COc2ccc(C#CCCNS(C)(=O)=O)cc21 [Example 51, (S)—N^1-(5-methyl-7-(4-(methylsulfonamido)but-1-yn-1-yl)-4-oxo-2,3,4,5-tetrahydrobenzo[b][1,4]oxazepin-3-yl)-N^2-phenethyloxalamide] | 25 to 49 | A (A: ≥90%)
COCC#Cc1ccc2c(c1)N(C)C(=O)[C@@H](NC(=O)C(=O)NCCc1ccccc1)CO2 [Example 52, (S)—N^1-(7-(3-methoxyprop-1-yn-1-yl)-5-methyl-4-oxo-2,3,4,5-tetrahydrobenzo[b][1,4]oxazepin-3-yl)-N^2-phenethyloxalamide] | ≥ 75 | A (A: ≥90%)
CN1C(=O)C(NC(=O)C(=O)NCCc2ccccc2)CCc2ccc(Br)cc21 (centres unmarked) [Example 61, N^1-(8-bromo-1-methyl-2-oxo-2,3,4,5-tetrahydro-1H-benzo[b]azepin-3-yl)-N^2-phenethyloxalamide] | ≥ 75 | A (A: ≥90%)
CN1C(=O)C(NC(=O)C(=O)NCCc2ccccc2)CCc2ccc(C#CC3CC3)cc21 (centres unmarked) [Example 62, N^1-(8-(cyclopropylethynyl)-1-methyl-2-oxo-2,3,4,5-tetrahydro-1H-benzo[b]azepin-3-yl)-N^2-phenethyloxalamide] | ≥ 75 | A (A: ≥90%)
CN1C(=O)C(NC(=O)C(=O)NCCc2ccccc2)CCc2ccc(C#CCCO)cc21 (centres unmarked) [Example 65, N^1-(8-(4-hydroxybut-1-yn-1-yl)-1-methyl-2-oxo-2,3,4,5-tetrahydro-1H-benzo[b]azepin-3-yl)-N^2-phenethyloxalamide] | ≥ 75 | A (A: ≥90%)
CN1C(=O)C(NC(=O)C(=O)NCCc2ccccc2)CCc2ccc(C#CC3CCNCC3)cc21 (centres unmarked) [Example 66, N^1-(1-methyl-2-oxo-8-(piperidin-4-ylethynyl)-2,3,4,5-tetrahydro-1H-benzo[b]azepin-3-yl)-N^2-phenethyloxalamide] | 50 to 74 | A (A: ≥90%)
CN1C(=O)[C@@H](NC(=O)C(=O)NCCc2ccccc2)COc2ccc(C#CC3CCN(CC#N)CC3)cc21 [Example 74, (S)—N^1-(7-((1-(cyanomethyl)piperidin-4-yl)ethynyl)-5-methyl-4-oxo-2,3,4,5-tetrahydrobenzo[b][1, 4]oxazepin-3-yl)-N^2-phenethyloxalamide] | 50 to 74 | A (A: ≥90%)
